Tests used:
P2X3 = target: T1, P2X3 (Homo sapiens, UniProt P56373); experiment: Calcium uptake assay (P2X antagonist assay, inhibition of agonist-induced calcium influx), P2X3; assay type: cell-based; details: inhibition of agonist-induced calcium influx in cells expressing the receptor
T1 construct: expressed in transfected cells; host or cells: e.g. HEK293 or 1321N1
T1 sequence (P56373 1-397): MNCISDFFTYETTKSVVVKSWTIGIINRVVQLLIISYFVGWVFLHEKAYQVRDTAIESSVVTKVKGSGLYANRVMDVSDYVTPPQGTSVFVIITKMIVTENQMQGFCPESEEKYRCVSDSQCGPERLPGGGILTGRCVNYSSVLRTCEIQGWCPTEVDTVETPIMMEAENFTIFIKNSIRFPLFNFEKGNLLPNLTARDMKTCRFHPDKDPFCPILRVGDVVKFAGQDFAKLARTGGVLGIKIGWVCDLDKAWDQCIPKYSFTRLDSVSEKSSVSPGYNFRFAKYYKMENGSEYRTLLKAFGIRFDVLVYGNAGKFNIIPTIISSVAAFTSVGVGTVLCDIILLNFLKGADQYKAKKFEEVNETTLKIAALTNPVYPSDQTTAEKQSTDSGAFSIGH
Excerpt: (§1) The human P2X2/3 chimera clone is created as described by Neelands et al, and then cloned into an expression vector as above. Receptors are expressed in cells (e.g., HEK293 or 1321N1 (obtained from the ECACC)) via transient transfection using standard lipid mediated transfection, or by creation of stable transfectants for each receptor. For expression of the P2X2/3 heteromeric receptor, the P2X3 expression vector is stably transfected into a cell line already stably expressing P2X2. P2X2/3 heteromer function is isolated using pharmacological methods. Cell lines are maintained in DMEM+5% Glutamax, the appropriate level of selective antibiotic, and 10% heat inactivated FBS.
(§2) Functional activity of compounds at the P2X receptor is determined by measuring their ability to inhibit agonist-induced calcium influx. Compounds are tested for antagonist activity against the P2X2/3 chimera, the P2X3 homomer, or the P2X2/3 heteromer. At the start of each screening day, the agonist EC50 is determined. Compound % inhibition or IC50s are subsequently determined using a pre-determined agonist concentration (EC50-90 depending on cell line) as a stimulus. The agonists used are αβMeATP, ATP, or other ATP analogs. Compounds may be tested at concentrations ranging from 1 pM to 10 μM.
(§3) To test for antagonist activity, cells expressing the appropriate receptor are seeded onto 96 or 384 well plates 18-24 hours prior to assay. […] Plates are incubated at 37° C. and then equilibrated at room temperature. Antagonism of agonist-induced calcium influx is measured using a fluorescent imaging plate reader (e.g. FLIPR^TETRA, Molecular Devices, Sunnyvale, Calif.). The assay comprises two stages: a pre-treatment phase followed by a treatment phase. Compounds may be tested as follows: For the pre-treatment phase, 50 μL of 3× concentration of test compound in HBSS is added to cells containing 100 μL of dye loading media to achieve a final concentration of 1× test compound. For the treatment phase, at a set interval after pre-treatment (1-30 minutes), 50 μl, of 1× test compound plus 4× agonist solution is added, resulting in a final concentration of 1× compound and 1× agonist. […] Responses are measured as (peak fluorescence after agonist addition) minus (baseline fluorescence prior to treatment). Percent inhibition is calculated as follows: […]
(§4) IC50 values are determined by analyzing dose response data in a 4 parameter logistic fit using GraphPad Prizm.

P2X2/3 = target: T2, P2X2/3 (Homo sapiens, UniProt P56373+Q9UBL9); experiment: Calcium uptake assay (P2X antagonist assay, inhibition of agonist-induced calcium influx), P2X2/3; assay type: cell-based; details: inhibition of agonist-induced calcium influx in cells expressing the receptor
T2 construct: expressed in transfected cells; host or cells: cell line stably expressing P2X2, stably transfected with P2X3 (e.g. HEK293 or 1321N1)
T2 sequence (Q9UBL9 1-471): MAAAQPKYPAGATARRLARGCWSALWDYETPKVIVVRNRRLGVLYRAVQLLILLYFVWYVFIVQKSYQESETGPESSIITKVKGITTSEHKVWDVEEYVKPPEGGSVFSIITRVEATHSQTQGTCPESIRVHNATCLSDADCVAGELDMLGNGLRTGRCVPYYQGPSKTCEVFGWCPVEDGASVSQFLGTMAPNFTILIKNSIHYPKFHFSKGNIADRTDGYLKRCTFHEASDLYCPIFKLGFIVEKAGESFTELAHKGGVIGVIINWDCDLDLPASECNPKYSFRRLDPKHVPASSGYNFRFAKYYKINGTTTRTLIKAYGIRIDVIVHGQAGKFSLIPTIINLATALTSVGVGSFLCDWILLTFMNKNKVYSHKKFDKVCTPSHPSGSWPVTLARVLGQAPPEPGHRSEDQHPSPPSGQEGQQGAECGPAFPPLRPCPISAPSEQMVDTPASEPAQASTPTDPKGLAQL
T2 sequence (P56373 1-397): T1 sequence (P56373 1-397)
Excerpt: as §1, §2, §3, §4

| Structure (SMILES) | IC50 (P2X3) | IC50 (P2X2/3) |
| --- | --- | --- |
| Cc1ccc(N2CCc3ncnc(NCc4ccc(C)c(F)c4)c3C2)c(C#N)c1 [Compound 48, 2-[4-(3-Fluoro-4-methyl-benzylamino)-7,8-dihydro-5H-pyrido[4,3-d]pyrimidin-6-yl]-5-methyl-benzonitrile] | 89 nM | 124 nM |
| Cc1ccc(N2CCc3ncnc(N[C@@H](CCO)c4ccc(C(F)(F)F)nc4)c3C2)c(C#N)c1 [Compound 65, 2-{4-[(S)-3-Hydroxy-1-(6-trifluoromethyl-pyridin-3-yl)-propylamino]-7,8-dihydro-5H-pyrido[4,3-d]pyrimidin-6-yl}-5-methyl-benzonitrile] | 806 nM | 5420 nM |
| N#Cc1cc(Cl)ccc1N1CCc2ncnc(NCc3ccc4nccnc4c3)c2C1 [Compound 84, 5-Chloro-2-{4-[(quinoxalin-6-ylmethyl)-amino]-7,8-dihydro-5H-pyrido[4,3-d]pyrimidin-6-yl}-benzonitrile] | 125 nM | 478 nM |
| N#Cc1cc(Cl)ccc1N1CCc2ncnc(NCc3ccn4ccnc4c3)c2C1 [Compound 44, 5-Chloro-2-{4-[(imidazo[1,2-a]pyridin-7-ylmethyl)-amino]-7,8-dihydro-5H-pyrido[4,3-d]pyrimidin-6-yl}-benzonitrile] | 122 nM | 753 nM |
| N#Cc1cc(Cl)ccc1N1CCc2ncnc(NCc3cccc(-n4cnnc4)c3)c2C1 [Compound 51, 5-Chloro-2-[4-(3-[1,2,4]triazol-4-yl-benzylamino)-7,8-dihydro-5H-pyrido[4,3-d]pyrimidin-6-yl]-benzonitrile] | 284 nM | 1020 nM |
| Cc1ccc(N2CCc3ncnc(NCc4ccc5c(c4)OCO5)c3C2)c(C#N)c1 [Compound 82, 2-(4-(Benzo[d][1,3]dioxol-5-ylmethylamino)-7,8-dihydropyrido[4,3-d]pyrimidin-6(5H)-yl)-5-methylbenzonitrile] | 56 nM | 310 nM |
| Cc1ccc(N2CCc3ncnc(NCc4ccc(C5CC5)cn4)c3C2)c(C#N)c1 [Compound 30, 2-{4-[(5-Cyclopropyl-pyridin-2-ylmethyl)-amino]-7,8-dihydro-5H-pyrido[4,3-d]pyrimidin-6-yl}-5-methyl-benzonitrile] | 236 nM | 377 nM |
| CC(=O)OCC[C@@H](Nc1ncnc2c1CN(c1ccc(C)cc1C#N)CC2)c1ccc(C(F)(F)F)nc1 [Compound 77, Acetic acid (R)-3-[6-(2-cyano-4-methyl-phenyl)-5,6,7,8-tetrahydro-pyrido[4,3-d]pyrimidin-4-ylamino]-3-(6-trifluoromethyl-pyridin-3-yl)-propyl ester] | 130 nM | 536 nM |
| COc1ccc(CNc2ncnc3c2CN(c2ccc(Cl)cc2C#N)CC3)cn1 [Compound 13, 5-Chloro-2-(4-((6-methoxypyridin-3-yl)methylamino)-7,8-dihydropyrido[4,3-d]pyrimidin-6(5H)-yl)benzonitrile] | 59 nM | 169 nM |
| Cc1ccc(N2CCc3ncnc(NCc4ccccn4)c3C2)c(C#N)c1 [Compound 29, 5-Methyl-2-{4-[(pyridin-2-ylmethyl)-amino]-7,8-dihydro-5H-pyrido[4,3-d]pyrimidin-6-yl}-benzonitrile] | 196 nM | 1670 nM |
| CSc1cc(CNc2ncnc3c2CN(c2ccc(C)cc2C#N)CC3)ccc1C [Compound 49, 5-Methyl-2-[4-(4-methyl-3-methylsulfanyl-benzylamino)-7,8-dihydro-5H-pyrido[4,3-d]pyrimidin-6-yl]-benzonitrile] | 474 nM | 925 nM |
| N#Cc1cc(C2CC2)ccc1N1CCc2ncnc(NCc3ccc(C(F)(F)F)nc3)c2C1 [Compound 3, 5-Cyclopropyl-2-{4-[(6-trifluoromethyl-pyridin-3-ylmethyl)-amino]-7,8-dihydro-5H-pyrido[4,3-d]pyrimidin-6-yl}-benzonitrile] | 870 nM |  |
| N#Cc1cc(C(F)(F)F)ccc1N1CCc2ncnc(NCc3ccc(C(F)(F)F)nc3)c2C1 [Compound 5, 5-Trifluoromethyl-2-{4-[(6-trifluoromethyl-pyridin-3-ylmethyl)-amino]-7,8-dihydro-5H-pyrido[4,3-d]pyrimidin-6-yl}-benzonitrile] | 1840 nM |  |
| N#Cc1cc(Br)ccc1N1CCc2ncnc(NCc3ccc(C(F)(F)F)nc3)c2C1 [Compound 2, 5-Bromo-2-{4-[(6-trifluoromethyl-pyridin-3-ylmethyl)-amino]-7,8-dihydro-5H-pyrido[4,3-d]pyrimidin-6-yl}-benzonitrile] | 80 nM |  |

These reach a lower IC50 (P2X3). Values come first.

| IC50 (P2X3) | IC50 (P2X2/3) | Structure (SMILES) |
| --- | --- | --- |
| 54 nM | 671 nM | N#Cc1cc(Cl)ccc1N1CCc2ncnc(N[C@H](CO)c3ccc(C(F)(F)F)nc3)c2C1 [Compound 47, 5-Chloro-2-{4-[(S)-2-hydroxy-1-(6-trifluoromethyl-pyridin-3-yl)-ethylamino]-7,8-dihydro-5H-pyrido[4,3-d]pyrimidin-6-yl}-benzonitrile] |
| 41 nM | 50 nM | Cc1ccc(N2CCc3ncnc(NCc4ncc(Cl)cc4Cl)c3C2)c(C#N)c1 [Compound 32, 2-{-4-[(3,5-Dichloro-pyridin-2-ylmethyl)-amino]-7,8-dihydro-5H-pyrido[4,3-d]pyrimidin-6-yl}-5-methyl-benzonitrile] |
| 40 nM | 241 nM | Cc1ccc(CNc2ncnc3c2CN(c2ccc(Cl)cc2C#N)CC3)cc1S(C)(=O)=O [Compound 76, 5-Chloro-2-[4-(3-methanesulfonyl-4-methyl-benzylamino)-7,8-dihydro-5H-pyrido[4,3-d]pyrimidin-6-yl]-benzonitrile] |
| 33 nM | 105 nM | COc1ccc([C@@H](CCO)Nc2ncnc3c2CN(c2ccc(Cl)cc2C#N)CC3)cn1 [Compound 34, 5-Chloro-2-{4-[(R)-3-hydroxy-1-(6-methoxy-pyridin-3-yl)-propylamino]-7,8-dihydro-5H-pyrido[4,3-d]pyrimidin-6-yl}-benzonitrile] |
| 31 nM | 63 nM | Cc1ccc(N2CCc3ncnc(NCc4ccc(Cl)c(-n5cnnc5)c4)c3C2)c(C#N)c1 [Compound 50, 2-[4-(4-Chloro-3-[1,2,4]triazol-4-yl-benzylamino)-7,8-dihydro-5H-pyrido[4,3-d]pyrimidin-6-yl]-5-methyl-benzonitrile] |
| 23 nM | 59 nM | Cc1ccc(N2CCc3ncnc(N[C@H](CCO)c4ccc(C(F)(F)F)nc4)c3C2)c(C#N)c1 [Compound 64, 2-{4-[(R)-3-Hydroxy-1-(6-trifluoromethyl-pyridin-3-yl)-propylamino]-7,8-dihydro-5H-pyrido[4,3-d]pyrimidin-6-yl}-5-methyl-benzonitrile] |
| 21 nM | 71 nM | Cc1ccc(N2CCc3ncnc(N[C@H](CO)c4ccc(C(F)(F)F)nc4)c3C2)c(C#N)c1 [Compound 46, 2-{4-[(S)-2-Hydroxy-1-(6-trifluoromethyl-pyridin-3-yl)-ethylamino]-7,8-dihydro-5H-pyrido[4,3-d]pyrimidin-6-yl}-5-methyl-benzonitrile] |
| 15 nM | 45 nM | Cc1ccc(N2CCc3ncnc(NCc4ccc5ocnc5c4)c3C2)c(C#N)c1 [Compound 38, 2-{4-[(Benzooxazol-5-ylmethyl)-amino]-7,8-dihydro-5H-pyrido[4,3-d]pyrimidin-6-yl}-5-methyl-benzonitrile] |
